Experimental findings from US11485744B2, “High penetration prodrug compositions of antimicrobials and antimicrobial-related compounds” (priority 2009, dated 2022) are described below.

Structures can show the parent of a compound that is named as a salt. A value given as a limit tells only on which side of the number the result lay.

One data set in a line: In vitro penetration across isolated human skin in modified Franz cells. The conditions noted are these: Table 1b; isolated human skin, Franz cells, 10% in 0.2 M phosphate buffer pH 7.4, n=5. How it is done: Penetration rates of HPPs and their parent drugs through human skin were measured in vitro by modified Franz cells. A Franz cell had two chambers, the top sample chamber and the bottom receiving chamber. The human skin tissue (360-400 μm thick) that separated the top and the receiving chambers was isolated from the anterior or posterior thigh areas.
A test compound (2 mL, 10% in 0.2 M phosphate buffer, pH 7.4) was added to the sample chamber of a Franz cell. The receiving chamber contained 10 ml of 0.2 M phosphate buffer which was stirred at 600 rpm. The amount of the tested compound penetrating the skin was determined by high-performance liquid chromatography (HPLC) method.
`CCN(CC)COP(=O)(CNC(=O)OCc1ccccc1)Oc1ccc([N+](=O)[O-])cc1.Cl` (stereo not shown) [[(N-benzyloxycarbonylamino)methyl]-phosphonic acid (4-nitrophenyl)(N,N-diethylaminomethyl) ester•HCl salt]: the “In vitro Penetration Rate (apparent flux), HPPs of beta-lactamases inhibitors” value is 0.37 ± 0.03 mg/cm^2/h.

On to `O=C(NCP(=O)([O-])Oc1cccnc1)OCc1ccccc1.[Na+]` [[(N-benzyloxycarbonylamino)methyl]-phosphonic acid mono-(3-pyridinyl) ester sodium salt, reference compound], for which the “In vitro Penetration Rate (apparent flux), Parent compounds (beta-lactamases inhibitors)” value was under 0.001 mg/cm^2/h.

With `O=C(NCP(=O)([O-])Oc1ccc([N+](=O)[O-])cc1)OCc1ccccc1.[Na+]` [[(N-benzyloxycarbonylamino)methyl]-phosphonic acid mono-(4-nitrophenyl) ester sodium salt, reference compound], the “In vitro Penetration Rate (apparent flux), Parent compounds (beta-lactamases inhibitors)” value was under 0.001 mg/cm^2/h.

Still in this data set, the particulars now being: human, 10 %, pH 7.4.
Turning to `C=CC1=C(C(=O)O)N2C(=O)[C@@H](NC(=O)/C(=N\OCC(=O)O)c3csc(N)n3)[C@H]2SC1` [Cefixime, reference compound], the “In vitro Penetration Rate (apparent flux), Parent compounds” value is given as under 0.010 mg/cm^2/h.

As to `COCC1=C(C(=O)OC(C)OC(=O)OC(C)C)N2C(=O)[C@@H](NC(=O)/C(=N\OC)c3csc(N)n3)[C@H]2SC1` (stereo partly shown) [Cefpodoxime proxetil, reference compound], the “In vitro Penetration Rate (apparent flux), Parent compounds” value is under 0.001 mg/cm^2/h.

With `Cc1onc(-c2c(Cl)cccc2Cl)c1C(=O)N[C@@H]1C(=O)N2[C@@H]1SC(C)(C)[C@@H]2C(=O)O` [Dicloxacillin, reference compound], the “In vitro Penetration Rate (apparent flux), Parent compounds” value is under 0.001 mg/cm^2/h.

Regarding `CCN1CCN(C(=O)N[C@@H](C(=O)N[C@@H]2C(=O)N3C(C(=O)O)=C(CSc4nnnn4C)CS[C@H]23)c2ccc(O)cc2)C(=O)C1=O` [Cefoperazone, reference compound], the “In vitro Penetration Rate (apparent flux), Parent compounds” value is on record as under 0.015 mg/cm^2/h.

As for `CC(=O)OCC1=C(C(=O)O)N2C(=O)[C@@H](NC(=O)Cc3cccs3)[C@H]2SC1` [Cephalothin, reference compound], the “In vitro Penetration Rate (apparent flux), Parent compounds” value is under 0.001 mg/cm^2/h.

For the molecule `O=C(O)[C@H]1/C(=C/CO)O[C@@H]2CC(=O)N21` [clavulanic acid, (2R,5R,Z)-3-(2-hydroxyethylidene)-7-oxo-4-oxa-1-aza-bicyclo[3.2.0]heptane-2-carboxylic acid, reference compound], the “In vitro Penetration Rate (apparent flux), Parent compounds (beta-lactamases inhibitors)” value is listed as under 0.001 mg/cm^2/h.

In the case of `NCc1ccccc1CC(=O)N[C@@H]1C(=O)N2C(C(=O)O)=C(CSc3nnnn3CC(=O)O)CS[C@H]12` [Ceforanide, reference compound], the “In vitro Penetration Rate (apparent flux), Parent compounds” value is recorded as under 0.001 mg/cm^2/h.

In the case of `C[C@]1(Cn2ccnn2)[C@H](C(=O)O)N2C(=O)C[C@H]2S1(=O)=O` [tazobactam, [2S-(2alpha,3beta,5alpha)]-3-Methyl-7-oxo-3-(1H-1,2,3-triazol-1-ylmethyl)-4-thia-1-azabicyclo[3.2.0]heptane-2-carboxylic acid 4,4-dioxide sodium salt, reference compound], the “In vitro Penetration Rate (apparent flux), Parent compounds (beta-lactamases inhibitors)” value was under 0.001 mg/cm^2/h.

For the molecule `CC1(C)S[C@@H]2[C@H](NC(=O)[C@H](NC(=O)N3CCN(S(C)(=O)=O)C3=O)c3ccccc3)C(=O)N2[C@H]1C(=O)O` [Mezlocillin, reference compound], the “In vitro Penetration Rate (apparent flux), Parent compounds” value is given as under 0.001 mg/cm^2/h.

With `CC1(C)S[C@@H]2[C@H](NC(=O)[C@H](NC(=O)N3CCNC3=O)c3ccccc3)C(=O)N2[C@H]1C(=O)O` [Azlocillin, reference compound], the “In vitro Penetration Rate (apparent flux), Parent compounds” value was under 0.001 mg/cm^2/h.

`CO/N=C(\C(=O)N[C@@H]1C(=O)N2C(C(=O)O)=C(COC(N)=O)CS[C@H]12)c1ccco1` [Cefuroxime, reference compound]: the “In vitro Penetration Rate (apparent flux), Parent compounds” value is under 0.001 mg/cm^2/h.

Consider `CO[C@@]1(NC(=O)Cc2cccs2)C(=O)N2C(C(=O)O)=C(COC(N)=O)CS[C@@H]21` [cefoxitin, reference compound], for which the “In vitro Penetration Rate (apparent flux), Parent compounds” value is listed as under 0.001 mg/cm^2/h.

The data set is the same for the next values; noted with them: pH 7.4.
As for `Cc1onc(-c2c(Cl)cccc2Cl)c1C(=O)NC1C(=O)N2C1SC(C)(C)C2C(=O)OCCN1CCCCC1.Cl` (stereo not shown) [6-[3-(2,6-dichlorophenyl)-5-methyl-4-isoxazolecarboxamido]penicillinic acid 1-piperidineethyl ester hydrochloride], the “In vitro Penetration Rate (apparent flux), HPPs” value came to 0.58 ± 0.05 mg/cm^2/h.

Turning to `Cl.O=C(OCCC1CCNCC1)[C@H]1/C(=C/CO)O[C@@H]2CC(=O)N21` [clavulanic acid-PEE, (2R,5R,Z)-3-(2-hydroxyethylidene)-7-oxo-4-oxa-1-aza-bicyclo[3.2.0]heptane-2-carboxylic acid 4-piperidineethyl ester•HCl salt], the “In vitro Penetration Rate (apparent flux), HPPs of beta-lactamases inhibitors” value amounted to 0.29 ± 0.02 mg/cm^2/h.

For `C=CCSCC(=O)NC1C(=O)N2C1SC(C)(C)C2C(=O)OCCN(C)C.Cl` (stereo not shown) [Allylmercaptomethylpenicillinic acid 2-dimethylaminoethyl ester hydrochloride], the “In vitro Penetration Rate (apparent flux), HPPs” value came out at 0.65 ± 0.05 mg/cm^2/h.

For the molecule `C=CCSCC(=O)N[C@@H]1C(=O)N2[C@@H]1SC(C)(C)[C@@H]2C(=O)O` [penicillin O, reference compound], the “In vitro Penetration Rate (apparent flux), Parent compounds” value was under 0.001 mg/cm^2/h.

In the case of `CCCN(CCC)CCOC(=O)C1N2C(=O)C(NC(=O)c3c(OC)cccc3OC)C2SC1(C)C.Cl` (stereo not shown) [6-(2,6-dimethoxybenzamido)penicillinic acid 2-dipropylaminoethyl ester hydrochloride], the “In vitro Penetration Rate (apparent flux), HPPs” value is given as 0.52 ± 0.07 mg/cm^2/h.

`CC1(C)SC2C(NC(=O)[C@H](NC(=O)N3CCNC3=O)c3ccccc3)C(=O)N2C1C(=O)OCC1CCCN1.Cl` (stereo partly drawn) [D-α-[(imidazolidin-2-on-1-yl)carbonylamino]benzylpenicillin 2-pyrrolidinemethyl ester hydrochloride]: the “In vitro Penetration Rate (apparent flux), HPPs” value is 0.72 ± 0.05 mg/cm^2/h.

Regarding `Cc1onc(-c2ccccc2Cl)c1C(=O)NC1C(=O)N2C1SC(C)(C)C2C(=O)OCCC1CCCNC1.Cl` (stereo not shown) [6-[3-(o-chlorophenyl)-5-methyl-4-isoxazolecarboxamido]penicillinic acid 3-piperidineethyl ester hydrochloride], the “In vitro Penetration Rate (apparent flux), HPPs” value was determined as 0.85 ± 0.05 mg/cm^2/h.

Take `C[C@]1(Cn2ccnn2)[C@H](C(=O)OCCN2CCCCC2)N2C(=O)C[C@H]2S1(=O)=O.Cl` [tazobactam-PEE, [2S-(2alpha,3beta,5alpha)]-3-Methyl-7-oxo-3-(1H-1,2,3-triazol-1-ylmethyl)-4-thia-1-azabicyclo[3.2.0]heptane-2-carboxylic acid 4,4-dioxide 1-piperidineethyl ester•HCl salt]: the “In vitro Penetration Rate (apparent flux), HPPs of beta-lactamases inhibitors” value was 0.32 ± 0.03 mg/cm^2/h.

With `CCOC(=O)C1N2C(=O)C(NC(=O)[C@H](N)c3ccccc3)C2SC1(C)C.Cl` (stereo partly drawn) [6-[D(−)-α-aminophenylacetamidopenicillinic acid ethyl ester hydrochloride], the “In vitro Penetration Rate (apparent flux), HPPs” value came out at 0.82 ± 0.06 mg/cm^2/h.

Regarding `CN(C)CCCC(=O)Nc1ccc(S(N)(=O)=O)cc1.Cl` [DMAB-sulfanilamide, 4-(4-dimethylaminobutyryl)amidobenzenesulfonamide•HCl salt], the “In vitro Penetration Rate (apparent flux), HPPs of sulfonamides, sulfones, quinolones” value came out at 0.18 ± 0.03 mg/cm^2/h.
